From patent US9371336B2, “Compounds for treating spinal muscular atrophy” (PTC Therapeutics Inc., priority 2012, dated 2016)

Columns and labels:
[1] = system: SMN2 minigene mRNA (SMN2-A minigene construct); experiment: SMN2 minigene mRNA splicing RT-qPCR assay in cultured cells; type: cell-based, human; details: Homo sapiens, HEK293-H; HEK293H cells stably transfected with SMN2-A minigene, 24 hours, 7-point concentration data; concentration giving 1.5-fold SMN2 full length mRNA relative to vehicle-treated cells; read-out: EC1.5x for production of full length SMN2 mRNA
Procedure, shortened: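 Full-length SMN2 minigene mRNA, measured by exon 7/luciferase-specific RT-qPCR that excludes endogenous SMN1/SMN2, was normalized to GAPDH and expressed relative to vehicle-treated cells via modified ΔΔCt. Stably transfected HEK293H cells received compound (7-point, 3.16-fold series, duplicates) for 24 h at 37 °C.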

Smn protein = Smn protein assay (HTRF) in cultured cells (SMA patient fibroblasts GM03813); type: cell-based, human; details: 48 hours; for EC1.5x for Smn protein expression: SMA patient fibroblast cells (GM03813), HTRF, 7-point concentration data, concentration producing 1.5 times Smn protein vs DMSO vehicle control; for maximum fold (Fold) increase of Smn protein: SMA patient fibroblast cells, 7-point concentration curve, relative to vehicle control
Procedure, shortened: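 Smn level is expressed as fold over vehicle, from blank-corrected ΔF of the 665/620 nm HTRF ratio. Readout used anti-SMN d2 and kryptate antibodies on RIPA lysates. GM03813 SMA fibroblasts had 48 h exposure at 37° C to seven 3.16-fold compound dilutions, run in triplicate.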

SMILES	EC (1.5-fold) [1] [µM]	EC1.5x for Smn protein expression (Smn protein)	maximum fold (Fold) increase of Smn protein (Smn protein)	melting point [°C]
Cc1ccn2cc(-c3cc4ccc(N5CCCNCC5)nc4oc3=O)nc2c1 [Cpd 65, 7-(1,4-diazepan-1-yl)-3-(7-methylimidazo[1,2-a]pyridin-2-yl)-2H-pyrano[2,3-b]pyridin-2-one]	0.3 to 1	**** (an EC1.5×≦0.3 μM is indicated by four stars (****))	**** (a fold increase between >1.5 and ≦1.65 is indicated by four stars (****))	239 to 241
Cc1ccc2nc(-c3cc4ccc(N5CCCNCC5)nc4oc3=O)cn2c1 [Cpd 66, 7-(1,4-diazepan-1-yl)-3-(6-methylimidazo[1,2-a]pyridin-2-yl)-2H-pyrano[2,3-b]pyridin-2-one]	0.1 to 0.3	** (an EC1.5× between >1 and ≦3 μM is indicated by two stars (**))	*** (a fold increase between >1.35 and ≦1.5 is indicated by three stars (***))	240 to 243
Cc1ccc2nc(-c3cc4ccc(N5C[C@@H](C)N[C@@H](C)C5)nc4oc3=O)cn2c1 [Cpd 67, 7-[(3R,5S)-3,5-dimethylpiperazin-1-yl]-3-(6-methylimidazo[1,2-a]pyridin-2-yl)-2H-pyrano[2,3-b]pyridin-2-one]	≤ 0.1	*** (an EC1.5× between >0.3 μM and ≦1 μM is indicated by three stars (***))	**** (a fold increase between >1.5 and ≦1.65 is indicated by four stars (****))	248 to 251
C[C@H]1CN(C)CCN1c1ccc2cc(-c3cn4cccc(F)c4n3)c(=O)oc2n1 [Cpd 68, 7-[(2S)-2,4-dimethylpiperazin-1-yl]-3-(8-fluoroimidazo[1,2-a]pyridin-2-yl)-2H-pyrano[2,3-b]pyridin-2-one]	≤ 0.1	*** (an EC1.5× between >0.3 μM and ≦1 μM is indicated by three stars (***))	**** (a fold increase between >1.5 and ≦1.65 is indicated by four stars (****))	210 to 213
C[C@H]1CN(c2ccc3cc(-c4cn5cccc(F)c5n4)c(=O)oc3n2)CCN1C [Cpd 69, 7-[(3S)-3,4-dimethylpiperazin-1-yl]-3-(8-fluoroimidazo[1,2-a]pyridin-2-yl)-2H-pyrano[2,3-b]pyridin-2-one]	≤ 0.1	**** (an EC1.5×≦0.3 μM is indicated by four stars (****))	***** (a fold increase >1.65 is indicated by five stars (*****))	222 to 225
C[C@@H]1CN(c2ccc3cc(-c4nc5c(Cl)cccc5s4)c(=O)oc3n2)C[C@H](C)N1 [Cpd 70, 3-(4-chloro-1,3-benzothiazol-2-yl)-7-[(3R,5S)-3,5-dimethylpiperazin-1-yl]-2H-pyrano[2,3-b]pyridin-2-one]	0.1 to 0.3	–	*** (a fold increase between >1.35 and ≦1.5 is indicated by three stars (***))	295 to 297
C[C@@H]1CN(c2ccc3cc(-c4nc5c(Cl)cccc5s4)c(=O)oc3n2)C[C@H](C)N1C [Cpd 71, 3-(4-chloro-1,3-benzothiazol-2-yl)-7-[(3R,5S)-3,4,5-trimethylpiperazin-1-yl]-2H-pyrano[2,3-b]pyridin-2-one]	0.1 to 0.3	–	** (a fold increase between >1.2 and ≦1.35 is indicated by two stars (**))	286 to 288
Cc1ccc2nc(-c3cc4ccc(N5CCN(C)[C@@H](C)C5)nc4oc3=O)cn2c1 [Cpd 74, 7-[(3S)-3,4-dimethylpiperazin-1-yl]-3-(6-methylimidazo[1,2-a]pyridin-2-yl)-2H-pyrano[2,3-b]pyridin-2-one]	≤ 0.1	*** (an EC1.5× between >0.3 μM and ≦1 μM is indicated by three stars (***))	**** (a fold increase between >1.5 and ≦1.65 is indicated by four stars (****))	248 to 252
Cc1ccc2nc(-c3cc4ccc(N5CCN(C)[C@H](C)C5)nc4oc3=O)cn2c1 [Cpd 75, 7-[(3R)-3,4-dimethylpiperazin-1-yl]-3-(6-methylimidazo[1,2-a]pyridin-2-yl)-2H-pyrano[2,3-b]pyridin-2-one]	0.1 to 0.3	*** (an EC1.5× between >0.3 μM and ≦1 μM is indicated by three stars (***))	**** (a fold increase between >1.5 and ≦1.65 is indicated by four stars (****))	247 to 251
C[C@@H]1CN(c2ccc3cc(-c4cn5cccc(F)c5n4)c(=O)oc3n2)C[C@H](C)N1 [Cpd 76, 7-[(3R,5S)-3,5-dimethylpiperazin-1-yl]-3-(8-fluoroimidazo[1,2-a]pyridin-2-yl)-2H-pyrano[2,3-b]pyridin-2-one]	≤ 0.1	**** (an EC1.5×≦0.3 μM is indicated by four stars (****))	***** (a fold increase >1.65 is indicated by five stars (*****))	247 to 249
C[C@@H]1CN(c2ccc3cc(-c4cn5cccc(Cl)c5n4)c(=O)oc3n2)C[C@H](C)N1 [Cpd 77, 3-(8-chloroimidazo[1,2-a]pyridin-2-yl)-7-[(3R,5S)-3,5-dimethylpiperazin-1-yl]-2H-pyrano[2,3-b]pyridin-2-one]	≤ 0.1	**** (an EC1.5×≦0.3 μM is indicated by four stars (****))	***** (a fold increase >1.65 is indicated by five stars (*****))	240 to 242
C[C@@H]1CN(c2ccc3cc(-c4cn5cccnc5n4)c(=O)oc3n2)C[C@H](C)N1 [Cpd 78, 7-[(3R,5S)-3,5-dimethylpiperazin-1-yl]-3-(imidazo[1,2-a]pyrimidin-2-yl)-2H-pyrano[2,3-b]pyridin-2-one]	0.1 to 0.3	**** (an EC1.5×≦0.3 μM is indicated by four stars (****))	***** (a fold increase >1.65 is indicated by five stars (*****))	255 to 258
C[C@H]1CN(c2ccc3cc(-c4cn5ccccc5n4)c(=O)oc3n2)CCN1C [Cpd 81, 7-[(3S)-3,4-dimethylpiperazin-1-yl]-3-(imidazo[1,2-a]pyridin-2-yl)-2H-pyrano[2,3-b]pyridin-2-one]	0.1 to 0.3	**** (an EC1.5×≦0.3 μM is indicated by four stars (****))	***** (a fold increase >1.65 is indicated by five stars (*****))	213 to 216
C[C@@H]1CN(c2ccc3cc(-c4cn5ccccc5n4)c(=O)oc3n2)CCN1C [Cpd 82, 7-[(3R)-3,4-dimethylpiperazin-1-yl]-3-(imidazo[1,2-a]pyridin-2-yl)-2H-pyrano[2,3-b]pyridin-2-one]	0.1 to 0.3	*** (an EC1.5× between >0.3 μM and ≦1 μM is indicated by three stars (***))	**** (a fold increase between >1.5 and ≦1.65 is indicated by four stars (****))	216 to 219
C[C@@H]1CN[C@@H](C)CN1c1ccc2cc(-c3nc4c(Cl)cccc4s3)c(=O)oc2n1 [Cpd 85, 3-(4-chloro-1,3-benzothiazol-2-yl)-7-[(2R,5S)-2,5-dimethylpiperazin-1-yl]-2H-pyrano[2,3-b]pyridin-2-one]	0.1 to 0.3	–	** (a fold increase between >1.2 and ≦1.35 is indicated by two stars (**))	223 to 227
C[C@@H]1CN(C)[C@@H](C)CN1c1ccc2cc(-c3nc4c(Cl)cccc4s3)c(=O)oc2n1 [Cpd 86, 3-(4-chloro-1,3-benzothiazol-2-yl)-7-[(2R,5S)-2,4,5-trimethylpiperazin-1-yl]-2H-pyrano[2,3-b]pyridin-2-one]	0.3 to 1	–	** (a fold increase between >1.2 and ≦1.35 is indicated by two stars (**))	233 to 234
Cc1ccc2nc(-c3cc4ccc(N5C[C@H](C)NC[C@H]5C)nc4oc3=O)cn2c1 [Cpd 87, 7-[(2R,5S)-2,5-dimethylpiperazin-1-yl]-3-(6-methylimidazo[1,2-a]pyridin-2-yl)-2H-pyrano[2,3-b]pyridin-2-one]	0.1 to 0.3	**** (an EC1.5×≦0.3 μM is indicated by four stars (****))	***** (a fold increase >1.65 is indicated by five stars (*****))	225 to 229
Cc1cn2cc(-c3cc4ccc(N5CCCNCC5)nc4oc3=O)nc2c(C)n1.Cl [Cpd 89, 7-(1,4-diazepan-1-yl)-3-(6,8-dimethylimidazo[1,2-a]pyrazin-2-yl)-2H-pyrano[2,3-b]pyridin-2-one hydrochloride]	≤ 0.1	**** (an EC1.5×≦0.3 μM is indicated by four stars (****))	**** (a fold increase between >1.5 and ≦1.65 is indicated by four stars (****))	273 to 276
Cc1cn2cc(-c3cc4ccc(N5C[C@@H](C)N[C@@H](C)C5)nc4oc3=O)nc2c(C)n1 [Cpd 90, 3-(6,8-dimethylimidazo[1,2-a]pyrazin-2-yl)-7-[(3R,5S)-3,5-dimethylpiperazin-1-yl]-2H-pyrano[2,3-b]pyridin-2-one]	≤ 0.1	**** (an EC1.5×≦0.3 μM is indicated by four stars (****))	***** (a fold increase >1.65 is indicated by five stars (*****))	279 to 282
